We go through 26 compounds from patent US11833156B2, “Heterocyclic compounds as pad inhibitors” (JUBILANT EPIPAD LLC, priority 2017, dated 2023).

Where a name gives a salt, the structure may show the parent alone.

Sequence of PAD4 enzyme (Q9UM07 whole entry): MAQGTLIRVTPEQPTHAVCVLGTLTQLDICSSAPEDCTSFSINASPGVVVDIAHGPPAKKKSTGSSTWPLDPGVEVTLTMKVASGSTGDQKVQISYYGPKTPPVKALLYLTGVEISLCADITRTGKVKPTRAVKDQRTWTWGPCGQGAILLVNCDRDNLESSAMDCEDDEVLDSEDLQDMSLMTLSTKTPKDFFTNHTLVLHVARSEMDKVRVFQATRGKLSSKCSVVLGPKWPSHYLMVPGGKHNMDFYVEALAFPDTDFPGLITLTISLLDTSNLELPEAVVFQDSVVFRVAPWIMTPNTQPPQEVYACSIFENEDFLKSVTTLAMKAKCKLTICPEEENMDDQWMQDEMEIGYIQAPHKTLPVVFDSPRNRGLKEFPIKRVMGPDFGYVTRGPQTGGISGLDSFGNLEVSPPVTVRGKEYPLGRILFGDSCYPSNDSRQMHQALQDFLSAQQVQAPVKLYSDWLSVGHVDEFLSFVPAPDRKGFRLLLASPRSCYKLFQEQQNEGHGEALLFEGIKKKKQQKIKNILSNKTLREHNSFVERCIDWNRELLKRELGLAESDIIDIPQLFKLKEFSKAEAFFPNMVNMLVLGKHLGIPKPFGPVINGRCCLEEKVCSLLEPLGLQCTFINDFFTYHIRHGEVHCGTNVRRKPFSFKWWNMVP

The assay concerns the target PAD4 enzyme (Homo sapiens (Human), UniProt Q9UM07). The assay can be described thus: Ammonia Release Biochemical Assay (citrullination detected via ammonia release). The following applies: PAD4 120 nM, substrate BAEE, 60-min preincubation, read-out: NH3 release. How it is done: Ammonia Release Biochemical Assay
Citrullination assay was detected via ammonia release. PAD4 enzyme was diluted to 120 nM in assay buffer (100 mM HEPES, 50 mM NaCl, 2 mM DDT, 0.6 mg/mL BSA, pH 7.4) added to wells containing various concentration of compound or DMSO vehicle (1% final) in black 384 well plate. Following a 60-min preincubation at room temperature, the reaction was initiated by the addition of substrate (1.5 mM BAEE in 200 mM HEPES, 50 mM NaCl, 350 uM CaCl2, 2 mM, pH 7.4). The reaction was stopped after 60 min by addition of stop/detection buffer containing 50 mM EDTA, 2.6 mM of o-phthaladehyde and 2.6 mM DTT. Assay was incubated at room temperature for 90 min before measuring fluorescence's (λex 405/λem 460 nm) on Tecan reader. IC50 was calculated using XL-fit software model 205. (Ref: Nat Chem Biol. 2015 March; 11(3):189-91).
Consider `COc1ccc2cc(-c3nc4cc(C(=O)N5CCC[C@@H](N)C5)cc5c4n3CCO5)n(Cc3ccc(F)cc3)c2c1` [Example 51, (R)-(3-aminopiperidin-1-yl)(2-(1-(4-fluorobenzyl)-6-methoxy-1H-indol-2-yl)-3,4-dihydro-5-oxa-1,2a-diazaacenaphthylen-7-yl)methanone], for which the IC50 is at most 1000 nM.

For `Cc1cccc2cc(-c3nc4cc(C(=O)N5CCC[C@@H](N)C5)cc5c4n3CCN5)n(CC3CC3)c12` [Example 84, (R)-(3-aminopiperidin-1-yl)(2-(1-(cyclopropylmethyl)-7-methyl-1H-indol-2-yl)-5,6-dihydro-4H-imidazo [1,5,4-de]quinoxalin-8-yl)methanone], the IC50 was at most 1000 nM. In the case of `N[C@@H]1CCCN(C(=O)c2cc3c4c(c2)nc(-c2cc5ccccc5n2CC2CC2)n4CCN3S(=O)(=O)c2ccc(Cl)cc2)C1` [Example 81, (R)-(3-aminopiperidin-1-yl)(6-((4-chlorophenyl)sulfonyl)-2-(1-(cyclopropylmethyl)-1H-indol-2-yl)-5,6-dihydro-4H-imidazo[1,5,4-de]quinoxalin-8-yl)methanone] it was at least 10000 nM; in that of `CN1CCn2c(-c3cc4cc(F)ccc4n3CC3CC3)nc3cc(C(=O)N4CCC[C@@H](N)C4)cc1c32` [Example 75, (R)-(3-aminopiperidin-1-yl)(2-(1-(cyclopropylmethyl)-5-fluoro-1H-indol-2-yl)-6-methyl-5,6-dihydro-4H-imidazo[1,5,4-de]quinoxalin-8-yl)methanone], at most 1000 nM; in that of `N[C@@H]1CCCN(C(=O)c2cc3c4c(c2)nc(-c2cc5ccc(F)cc5n2CC2CC2)n4CCO3)C1` [Example 28, (R)-(3-aminopiperidin-1-yl)(2-(1-(cyclopropylmethyl)-6-fluoro-1H-indol-2-yl)-3,4-dihydro-5-oxa-1,2a-diazaacenaphthylen-7-yl)methanone], at most 1000 nM.

`N[C@@H]1CCCN(C(=O)c2cc3c4c(c2)nc(-c2cc5cc(/C=C/c6ccccc6)ccc5n2CC2CC2)n4CCO3)C1` [Example 58, (R,E)-(3-aminopiperidin-1-yl)(2-(1-(cyclopropylmethyl)-5-styryl-1H-indol-2-yl)-3,4-dihydro-5-oxa-1,2a-diazaacenaphthylen-7-yl)methanone]: the IC50 was in the range of 1000 to 10000 nM. In the case of `N[C@@H]1CCCN(C(=O)c2cc3c4c(c2)nc(-c2cc5cc(-c6cccnc6)ccc5n2CC2CC2)n4CCN3)C1` [Example 68, (R)-(3-aminopiperidin-1-yl)(2-(1-(cyclopropylmethyl)-5-(pyridin-3-yl)-1H-indol-2-yl)-5,6-dihydro-4H-imidazo [1,5,4-de]quinoxalin-8-yl)methanone], the IC50 was in the range of 1000 to 10000 nM. With `Cc1csc(Cn2c(-c3nc4cc(C(=O)N5CCC[C@@H](N)C5)cc5c4n3CCO5)cc3ccccc32)n1` [Example 59, (R)-(3-aminopiperidin-1-yl)(2-(1-((4-methylthiazol-2-yl)methyl)-1H-indol-2-yl)-3,4-dihydro-5-oxa-1,2a-diazaacenaphthylen-7-yl)methanone], the IC50 is at most 1000 nM. For `N[C@@H]1CCCN(C(=O)c2cc3c4c(c2)nc(-c2cc5cccc(Cl)c5n2Cc2cncnc2)n4CCO3)C1` [Example 88, (R)-(3-aminopiperidin-1-yl)(2-(7-chloro-1-(pyrimidin-5-ylmethyl)-1H-indol-2-yl)-3,4-dihydro-5-oxa-1,2a-diazaacenaphthylen-7-yl)methanone] the value was 1000 to 10000 nM; for `CCn1c(-c2nc3cc(C(=O)N4CCC[C@@H](N)C4)cc4c3n2CCO4)cc2ccccc21` [Example 3, (R)-(3-aminopiperidin-1-yl)(2-(1-ethyl-1H-indol-2-yl)-3,4-dihydro-5-oxa-1,2a-diazaacenaphthylen-7-yl)methanone], 1000 to 10000 nM; for `N[C@@H]1CCCN(C(=O)c2cc3c4c(c2)nc(-c2cc5cc(F)c(F)cc5n2CC2CC2)n4CCO3)C1` [Example 32, (R)-(3-aminopiperidin-1-yl)(2-(1-(cyclopropylmethyl)-5,6-difluoro-1H-indol-2-yl)-3,4-dihydro-5-oxa-1,2a-diazaacenaphthylen-7-yl)methanone], at most 1000 nM. As to `N[C@@H]1CCCN(C(=O)c2cc3c4c(c2)nc(-c2cc5ccccc5n2CC2CC2)n4CCN3S(=O)(=O)CCc2ccccc2)C1` [Example 79, (R)-(3-aminopiperidin-1-yl)(2-(1-(cyclopropylmethyl)-1H-indol-2-yl)-6-(phenethylsulfonyl)-5,6-dihydro-4H-imidazo[1,5,4-de]quinoxalin-8-yl)methanone], the IC50 lay within 1000 to 10000 nM. For `N[C@@H]1CCCN(C(=O)c2cc3c4c(c2)nc(-c2cc5ccccc5n2CC2CC2)n4CCN3C2CC2)C1` [Example 78, (R)-(3-aminopiperidin-1-yl)(6-cyclopropyl-2-(1-(cyclopropylmethyl)-1H-indol-2-yl)-5,6-dihydro-4H-imidazo[1,5,4-de]quinoxalin-8-yl)methanone] the value was at most 1000 nM; for `CC(C)Cn1c(-c2nc3cc(C(=O)N4CCC[C@@H](N)C4)cc4c3n2CCO4)cc2cccc(Cl)c21` [Example 55, (R)-(3-aminopiperidin-1-yl)(2-(7-chloro-1-isobutyl-1H-indol-2-yl)-3,4-dihydro-5-oxa-1,2a-diazaacenaphthylen-7-yl)methanone], at most 1000 nM. In the case of `CN1CCC(Cn2c(-c3nc4cc(C(=O)N5CCC[C@@H](N)C5)cc5c4n3CCO5)cc3ccccc32)CC1` [Example 45, (R)-(3-aminopiperidin-1-yl)(2-(1-((l-methylpiperidin-4-yl)methyl)-1H-indol-2-yl)-3,4-dihydro-5-oxa-1,2a-diazaacenaphthylen-7-yl)methanone] it was at least 10000 nM. With `COc1ccc(Cn2c(-c3nc4cc(C(=O)N5CCC[C@@H](N)C5)cc5c4n3CCO5)cc3cc(F)ccc32)cc1` [Example 46, (R)-(3-aminopiperidin-1-yl)(2-(5-fluoro-1-(4-methoxybenzyl)-1H-indol-2-yl)-3,4-dihydro-5-oxa-1,2a-diazaacenaphthylen-7-yl)methanone], the IC50 was at most 1000 nM.

For `N[C@@H]1CCCN(C(=O)c2cc3c4c(c2)nc(-c2cc5ccccc5n2Cc2ccncc2)n4CCN3)C1` [Example 71, (R)-(3-aminopiperidin-1-yl)(2-(1-(pyridin-4-ylmethyl)-1H-indol-2-yl)-5,6-dihydro-4H-imidazo[1,5,4-de]quinoxalin-8-yl)methanone], the IC50 was at most 1000 nM.

For the compound `CC1(C)COc2cc(C(=O)N3CCC[C@@H](N)C3)cc3nc(-c4cc5ccccc5n4CC4CC4)n1c23` [Example 62, (R)-(3-aminopiperidin-1-yl)(2-(1-(cyclopropylmethyl)-1H-indol-2-yl)-3,3-dimethyl-3,4-dihydro-5-oxa-1,2a-diazaacenaphthylen-7-yl)methanone], the IC50 is at least 10000 nM. Turning to `N[C@@H]1CCCN(C(=O)c2cc3c4c(c2)nc(-c2cc5ccccc5n2CC2CC2)n4CCN3S(=O)(=O)C2CC2)C1` [Example 82, (R)-(3-aminopiperidin-1-yl)(2-(1-(cyclopropylmethyl)-1H-indol-2-yl)-6-(cyclopropylsulfonyl)-5,6-dihydro-4H-imidazo[1,5,4-de]quinoxalin-8-yl)methanone], the IC50 fell in the range of 1000 to 10000 nM. As to `N[C@@H]1CCCN(C(=O)c2cc3c4c(c2)nc(-c2cc5ccccc5n2CC2CCOCC2)n4CCO3)C1` [Example 40, (R)-(3-aminopiperidin-1-yl)(2-(1-((tetrahydro-2H-pyran-4-yl)methyl)-1H-indol-2-yl)-3,4-dihydro-5-oxa-1,2a-diazaacenaphthylen-7-yl)methanone], the IC50 was in the range of 1000 to 10000 nM.

As to `COCCn1c(-c2nc3cc(C(=O)N4CCC[C@@H](N)C4)cc4c3n2CCO4)cc2ccc(OC)cc21` [Example 21, (R)-(3-aminopiperidin-1-yl)(2-(6-methoxy-1-(2-methoxyethyl)-1H-indol-2-yl)-3,4-dihydro-5-oxa-1,2a-diazaacenaphthylen-7-yl)methanone], the IC50 is at most 1000 nM.

Consider `CC(=O)N1CCn2c(-c3cc4ccccc4n3CC3CC3)nc3cc(C(=O)N4CCC[C@@H](N)C4)cc1c32` [Example 85], for which the IC50 is at most 1000 nM.

On to `N[C@@H]1CCCN(C(=O)c2cc3c4c(c2)nc(-c2cc5cc(Br)ccc5n2CC2CC2)n4CCN3)C1` [Example 67, (R)-(3-aminopiperidin-1-yl)(2-(5-bromo-1-(cyclopropylmethyl)-1H-indol-2-yl)-5,6-dihydro-4H-imidazo [1,5,4-de]quinoxalin-8-yl)methanone], for which the IC50 is at most 1000 nM.

In the case of `CN(C)C/C=C/C(=O)N[C@@H]1CCCN(C(=O)c2cc3c4c(c2)nc(-c2cc5ccccc5n2CC2CC2)n4CCO3)C1` [Example 38, (R,E)-N-(1-(2-(1-(cyclopropylmethyl)-1H-indol-2-yl)-3,4-dihydro-5-oxa-1,2a-diazaacenaphthylene-7-carbonyl)piperidin-3-yl)-4-(dimethylamino)but-2-enamide trifluoroacetic acid salt], the IC50 was at least 10000 nM.

Take `N[C@@H]1CCCN(C(=O)c2cc3c4c(c2)nc(-c2cc5c(F)cccc5n2CC2CC2)n4CCN3)C1` [Example 80, (R)-(3-aminopiperidin-1-yl)(2-(1-(cyclopropylmethyl)-4-fluoro-1H-indol-2-yl)-5,6-dihydro-4H-imidazo[1,5,4-de]quinoxalin-8-yl)methanone]: the IC50 fell in the range of 1000 to 10000 nM.

Take `N[C@@H]1CCCN(C(=O)c2cc3c4c(c2)nc(-c2cc5ccccc5n2CC2CCNCC2)n4CCO3)C1` [Example 43, (R)-(3-aminopiperidin-1-yl)(2-(1-(piperidin-4-ylmethyl)-1H-indol-2-yl)-3,4-dihydro-5-oxa-1,2a-diazaacenaphthylen-7-yl)methanone]: the IC50 was at least 10000 nM.
